Among the data in ChEMBL document CHEMBL1139148, “N-Phenyl-N'-(2-chloroethyl)urea analogues of combretastatin A-4: Is the N-phenyl-N'-(2-chloroethyl)urea pharmacophore mimicking the trimethoxy phenyl moiety?” (2007) are Activity and GI50 values, retold here.

Holding throughout (assay type): functional
Assay [1] has as its system M21. Put plainly: Cell cycle arrest in human M21 cells assessed as accumulation at G1 phase at 24 uM after 24 hrs.
Assay [2] concerns M21. The experiment in a line: Induction of apoptosis in human M21 cells at 200 uM after 24 hrs.
In assay [3] the test system is M21. The experiment in a line: Cell cycle arrest in human M21 cells assessed as accumulation at S phase at 80 uM after 24 hrs.
For assay [4], the system named is M21. Put plainly: Cell cycle arrest in human M21 cells assessed as accumulation at G2/M phase at 80 uM after 24 hrs.
Assay [5] deals with M21. Put plainly: Induction of apoptosis in human M21 cells at 80 uM after 24 hrs.
Assay [6] relates to M21. Put plainly: Cell cycle arrest in human M21 cells assessed as accumulation at G1 phase at 200 uM after 24 hrs.
For a further assay, the system named is HT-29. Put plainly: Growth inhibition of human HT29 cells.
For the next assay, the system named is MDA-MB-231. The experiment in a line: Growth inhibition of human MDA-MB-231 cells.
Assay [7] concerns M21. The experiment in a line: Induction of apoptosis in human M21 cells at 24 uM after 24 hrs.
Assay [8] relates to M21. Put plainly: Growth inhibition of human M21 cells.
In assay [9] the test system is M21. The experiment in a line: Cell cycle arrest in human M21 cells assessed as accumulation at G1 phase at 80 uM after 24 hrs.
Assay [10] deals with M21. Put plainly: Cell cycle arrest in human M21 cells assessed as accumulation at S phase at 24 uM after 24 hrs.
A further assay has as its system MCF7. Put plainly: Growth inhibition of human MCF7 cells.
For assay [11], the system named is M21. Put plainly: Cell cycle arrest in human M21 cells assessed as accumulation at G2/M phase at 200 uM after 24 hrs.
Assay [12] has as its system M21. The experiment in a line: Cell cycle arrest in human M21 cells assessed as accumulation at S phase at 200 uM after 24 hrs.
In assay [13] the test system is M21. Put plainly: Cell cycle arrest in human M21 cells assessed as accumulation at G2/M phase at 24 uM after 24 hrs.
The test system of assay [14] is M21. Put plainly: Cell cycle arrest in human M21 cells assessed as accumulation at G1 phase at 21 uM after 24 hrs.
The subject of assay [15] is M21. Put plainly: Cell cycle arrest in human M21 cells assessed as accumulation at S phase at 6 uM after 24 hrs.
The test system of assay [16] is M21. Put plainly: Cell cycle arrest in human M21 cells assessed as accumulation at S phase at 53 uM after 24 hrs.
Assay [17] deals with M21. The experiment in a line: Induction of apoptosis in human M21 cells at 53 uM after 24 hrs.
Assay [18] concerns M21. The experiment in a line: Cell cycle arrest in human M21 cells assessed as accumulation at G1 phase at 6 uM after 24 hrs.
Assay [19] has as its system M21. Put plainly: Cell cycle arrest in human M21 cells assessed as accumulation at G2/M phase at 53 uM after 24 hrs.
For assay [20], the system named is M21. The experiment in a line: Cell cycle arrest in human M21 cells assessed as accumulation at S phase at 21 uM after 24 hrs.
In assay [21] the test system is M21. The experiment in a line: Induction of apoptosis in human M21 cells at 21 uM after 24 hrs.
Assay [22] relates to M21. The experiment in a line: Induction of apoptosis in human M21 cells at 6 uM after 24 hrs.
Assay [23] relates to M21. Put plainly: Cell cycle arrest in human M21 cells assessed as accumulation at G2/M phase at 21 uM after 24 hrs.
Assay [24] has as its system M21. Put plainly: Cell cycle arrest in human M21 cells assessed as accumulation at G1 phase at 53 uM after 24 hrs.
Assay [25] concerns M21. Put plainly: Cell cycle arrest in human M21 cells assessed as accumulation at G2/M phase at 6 uM after 24 hrs.
Assay [26] relates to M21. The experiment in a line: Cell cycle arrest in human M21 cells assessed as accumulation at S phase at 0.125 uM after 24 hrs.
Assay [27] has as its system M21. The experiment in a line: Cell cycle arrest in human M21 cells assessed as accumulation at G1 phase at 0.015 uM after 24 hrs.
Assay [28] concerns M21. The experiment in a line: Induction of apoptosis in human M21 cells at 0.125 uM after 24 hrs.
The test system of assay [29] is M21. The experiment in a line: Induction of apoptosis in human M21 cells at 0.050 uM after 24 hrs.
For assay [30], the system named is M21. Put plainly: Cell cycle arrest in human M21 cells assessed as accumulation at G1 phase at 0.050 uM after 24 hrs.
For assay [31], the system named is M21. Put plainly: Cell cycle arrest in human M21 cells assessed as accumulation at G2/M phase at 0.015 uM after 24 hrs.
The subject of assay [32] is M21. Put plainly: Cell cycle arrest in human M21 cells assessed as accumulation at S phase at 0.015 uM after 24 hrs.
In assay [33] the test system is M21. The experiment in a line: Cell cycle arrest in human M21 cells assessed as accumulation at S phase at 0.050 uM after 24 hrs.
Assay [34] concerns M21. The experiment in a line: Cell cycle arrest in human M21 cells assessed as accumulation at G2/M phase at 0.050 uM after 24 hrs.
Assay [35] has as its system M21. Put plainly: Cell cycle arrest in human M21 cells assessed as accumulation at G2/M phase at 0.125 uM after 24 hrs.
Assay [36] relates to M21. Put plainly: Induction of apoptosis in human M21 cells at 0.015 uM after 24 hrs.
Assay [37] has as its system M21. The experiment in a line: Cell cycle arrest in human M21 cells assessed as accumulation at G1 phase at 0.125 uM after 24 hrs.

For `COc1ccc(/C=C/c2cccc(NC(=O)NCCCl)c2)cc1O`, the Activity in the assay on M21 [1] came out at 37.2%; with M21 [2], 4.5%; in the assay on M21 [3] it was 18.7%; in the assay on M21 [4], 21.3%; with M21 [5], 5.3%; with M21 [6] it was 40.3%. Further, the Activity with M21 [7] is recorded as 8.3%; in the assay on M21 [9], 38.1%; in the assay with M21 [10], 16.6%; in the assay with M21 [11] it was 19.6%; in the assay on M21 [12] it was 19%; in the assay on M21 [13] it was 22.5%. The concentration for 50% growth inhibition (GI50) with HT-29 is 68.2 µM; with MDA-MB-231, 16.5 µM; in the assay with M21 [8], 22.7 µM; in the assay with MCF7 it was 28.2 µM.
For `COc1ccc(CCc2cccc(NC(=O)NCCCl)c2)cc1O`, the Activity was 23.8% in the assay with M21 [1]; 6.9% with M21 [2]; 16.4% with M21 [3]; 34.9% in the assay with M21 [4]; 18.7% in the assay with M21 [5]; 13.5% with M21 [6]. The Activity was determined as 12.5% in the assay with M21 [7]; 15.2% with M21 [9]; 20.7% in the assay on M21 [10]; 42.6% in the assay on M21 [11]; 15.7% in the assay with M21 [12]; 27.5% with M21 [13]. Also, the GI50 is 9.6 µM in the assay on HT-29, 4.1 µM in the assay on MDA-MB-231, 4.7 µM in the assay on M21 [8] and 11.6 µM with MCF7.
On to `COc1ccc(/C=C\c2cccc(NC(=O)NCCCl)c2)cc1O`, for which the Activity with M21 [1] was determined as 22.1%; in the assay on M21 [2] it was 21.7%; in the assay on M21 [3], 16.4%; in the assay with M21 [4] it was 35.5%; with M21 [5], 15%; with M21 [6], 14.7%. Besides, the Activity in the assay with M21 [7] is recorded as 44.8%; with M21 [9] it was 18.4%; with M21 [10], 12.3%; in the assay with M21 [11], 41.3%; in the assay on M21 [12] it was 10.5%; in the assay on M21 [13] it was 12.5%. Further, the concentration for 50% growth inhibition (GI50) in the assay with HT-29 came out at 9.2 µM; in the assay on MDA-MB-231 it was 4.9 µM; with M21 [8] it was 4 µM; with MCF7 it was 4.5 µM.
For `COc1ccc(CCc2ccc(NC(=O)NCCCl)cc2)cc1O`, the Activity was 37.8% in the assay with M21 [1]; 2.6% in the assay on M21 [2]; 13.4% in the assay with M21 [3]; 45.1% in the assay with M21 [4]; 2.3% in the assay on M21 [5]; 7.2% in the assay on M21 [6]. In addition, the Activity in the assay with M21 [7] is on record as 2.8%; in the assay on M21 [9], 15.5%; in the assay on M21 [10] it was 9.9%; with M21 [11], 47.9%; in the assay on M21 [12], 16.3%; with M21 [13], 30.2%. For the same compound, the 50% growth inhibitory concentration (GI50) worked out at 15.3 µM with HT-29, 11 µM with MDA-MB-231, 16.3 µM in the assay on M21 [8] and 15.9 µM in the assay on MCF7.
As for `COc1ccc(/C=C\c2ccc(NC(=O)NCCCl)cc2)cc1O`, the Activity with M21 [14] worked out at 6.8%; with M21 [15], 15.8%; in the assay on M21 [16], 12.5%; with M21 [17], 9.7%; in the assay on M21 [18], 11.4%; in the assay on M21 [19], 48%. Also, the Activity was determined as 9.7% in the assay with M21 [20]; 17.6% in the assay on M21 [21]; 10.7% in the assay on M21 [22]; 47.2% in the assay with M21 [23]; 8.1% in the assay with M21 [24]; 43.3% in the assay on M21 [25]. Besides, the GI50 came out at 2.4 µM in the assay with HT-29, 0.86 µM in the assay with MDA-MB-231, 0.97 µM in the assay on M21 [8] and 1.65 µM in the assay on MCF7.
Regarding `COc1ccc(/C=C/c2ccc(NC(=O)NCCCl)cc2)cc1O`, the Activity is listed as 38.1% with M21 [1]; 11.9% in the assay with M21 [2]; 15.6% in the assay on M21 [3]; 21% in the assay on M21 [4]; 5.5% in the assay on M21 [5]; 37.4% in the assay on M21 [6]. The Activity in the assay with M21 [7] worked out at 9.9%; in the assay on M21 [9] it was 38.8%; in the assay on M21 [10] it was 12.9%; with M21 [11] it was 12.4%; in the assay with M21 [12] it was 21.9%; in the assay with M21 [13] it was 19.5%. The concentration for 50% growth inhibition (GI50) came to 1.18 µM in the assay on HT-29, 17.4 µM with MDA-MB-231, 8.38 µM in the assay on M21 [8] and 14 µM in the assay on MCF7.
Consider `O=C(NCCCl)Nc1cccc(CCCCCO)c1`, for which the 50% growth inhibitory concentration (GI50) with HT-29 is 0.16 µM; with MDA-MB-231 it was 0.23 µM; in the assay with M21 [8] it was 0.27 µM; with MCF7, 0.48 µM.
For `COc1ccc(/C=C\c2cc(OC)c(OC)c(OC)c2)cc1O` [COMBRETASTATIN A4], the Activity is reported as 14.7% in the assay on M21 [26]; 9.4% with M21 [27]; 11.6% in the assay with M21 [28]; 15.8% in the assay on M21 [29]; 10.1% with M21 [30]; 46.4% in the assay on M21 [31]. In addition, the Activity was determined as 15% with M21 [32]; 14.6% in the assay with M21 [33]; 40.6% in the assay on M21 [34]; 45.4% with M21 [35]; 10.7% with M21 [36]; 8.2% with M21 [37]. For the same compound, the 50% growth inhibitory concentration (GI50) with HT-29 amounted to 0.089 µM; in the assay on MDA-MB-231, 0.002 µM; with M21 [8] it was 0.002 µM; with MCF7, 0.003 µM.

The GI50 is the concentration at which growth is held to half of that of the control.
